Reference: the supplement of paper PMC10627819

Experiments:
[1] = tested on: S. aureus Newman; experiment: Bliss interaction score (quartile over a dose matrix) (fitness difference); higher = more antagonism (negative = synergy)
Summary of the method: (§1)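 Fitness was OD595 at entry into stationary phase divided by the plate's robust no-drug mean and capped at 1; single-drug fitness was inferred from combination data. The Bliss score is observed minus expected (product) fitness, summarised by quartiles over technical, biological and donor/recipient replicates.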

[2] = tested on: S. aureus DSM 20231; experiment: as above
Summary of the method: as §1

[3] = tested on: S. pneumoniae D39V; experiment: as above
Summary of the method: as §1

[4] = tested on: B. subtilis 168; experiment: as above
Summary of the method: as §1

[5] = tested on: S. pneumoniae D39V; experiment: fitness (endpoint OD595 vs no drug) (fraction); higher = more growth
Summary of the method: (§2)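 With the first reading as background, OD595 was measured every 30 min for 14 h in 384-well plates kept at 37 °C and inoculated at OD595 0.01. TSB, LB Lennox or CY was the medium. Fitness is the optical density at the transition into stationary phase divided by the robust mean of no-drug control wells, with a cap of 1.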

[6] = tested on: B. subtilis 168; experiment: as above
Summary of the method: as §2
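For Bliss interaction score (quartile over a dose matrix) in this document: first quartile when negative (synergy) and third quartile when positive (antagonism).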

CN(C)C(=O)C(CCN1CCC(O)(c2ccc(Cl)cc2)CC1)(c1ccccc1)c1ccccc1 [Loperamide] + COc1ccc(C[C@H](N)C(=O)N[C@H]2[C@@H](O)[C@H](n3cnc4c(N(C)C)ncnc43)O[C@@H]2CO)cc1 [Puromycin]
Conditions	Bliss interaction score
[1]	-0.0477
[2]	-0.192
[3]	0.0779
[4]	-0.121

fitness
Conditions	partner 0.39 µg/mL	partner 0.78 µg/mL	partner 1 µg/mL	partner 1.56 µg/mL	partner 2 µg/mL	partner 4 µg/mL
[5], first compound 17.14 µg/mL	–	–	0.999	–	0.965	0.872
[5], first compound 34.28 µg/mL	–	–	0.988	–	0.952	0.813
[6], first compound 25 µg/mL	0.82	0.767	–	0.718	–	–
[6], first compound 50 µg/mL	0.0429	0.038	–	0.0393	–	–
[6], first compound 100 µg/mL	0.0261	0.0107	–	0.0233	–	–

fitness, [5], one replicate
Conditions	first compound 20 µg/mL	first compound 40 µg/mL	first compound 68.57 µg/mL	first compound 80 µg/mL
partner 1 µg/mL	0.951	0.899	0.997	0.159
partner 2 µg/mL	0.951	0.93	0.956	0.129
partner 4 µg/mL	0.835	0.828	0.908	0.0785

CN(C)C(=O)C(CCN1CCC(O)(c2ccc(Cl)cc2)CC1)(c1ccccc1)c1ccccc1 [Loperamide] + C[n+]1ccc(-c2cc[n+](C)cc2)cc1 [Paraquat]
Conditions	Bliss interaction score
[1]	0.0662
[2]	0.177
[3]	0.0549
[4]	-0.103

fitness
Conditions	partner 1.25 µg/mL	partner 1.5 µg/mL	partner 2.5 µg/mL	partner 3 µg/mL	partner 5 µg/mL	partner 6 µg/mL
[5], first compound 17.14 µg/mL	–	0.994	–	0.984	–	0.922
[5], first compound 34.28 µg/mL	–	0.972	–	0.973	–	0.883
[6], first compound 25 µg/mL	0.798	–	0.684	–	0.537	–
[6], first compound 50 µg/mL	0.0367	–	0.0251	–	0.0432	–
[6], first compound 100 µg/mL	0.0324	–	0.0267	–	0.0238	–

fitness, [5], one replicate
Conditions	first compound 20 µg/mL	first compound 40 µg/mL	first compound 68.57 µg/mL	first compound 80 µg/mL
partner 1.5 µg/mL	≥ 1	≥ 1	0.934	≥ 1
partner 3 µg/mL	≥ 1	≥ 1	0.931	≥ 1
partner 6 µg/mL	≥ 1	≥ 1	0.853	≥ 1
